Experimental data as given in patent US7462486B2, “Methods of selecting T cell receptor V peptides for therapeutic use” (Oregon Health & Science University, priority 2000, dated 2008).
Entries after “also recorded” stand apart in the source; their conditions may differ.

Tests used:
Assay type in all cases: cell-based, human
[1] = tested on: IL-10-secreting T cells (PBMC); assay: IL-10 ELISPOT: frequency of TCR CDR2 peptide-specific cells in PBMC; conditions: for IL-10 response, MS patients versus HC: comparison in words; for frequency of IL-10-secreting T cells: 5 healthy controls; for frequency of IL-10-secreting T cells / frequency of responding cells (IL-10) in HC: single peptide; for frequency of responding cells (IL-10) in HC: healthy controls (HC); for frequency of responding cells (IL-10) in SPMS patient: MS186; for IL-10 response, SPMS patient versus HC: third SPMS patient (MS186), FIG. 4
Description: (§1) Antigens. Antigens used in the ELISPOT assay included ConA (2 μg/ml) and synthetic TCR peptides (25 μg/ml), including 116 known AV and BV gene products.
(§2) T cell frequency. To determine antigen-specific T cell frequency by ELISPOT, blood mononuclear cells were separated by Ficoll density gradient centrifugation, resuspended in 2% human AB serum, and aliquotted at 0.5 and 0.25 million cells in triplicate wells of nitrocellulose-coated microtiter plates (Resolution Technologies) pretreated with anti-IFN-γ (Mabtech, Sweden) or anti-IL-10 (PharMingen, San Diego, Calif.) mAb. Peptides, ConA, and medium were added and the plates incubated at 37 C for 24 hours (IFN-γ) or 48 hours (IL-10). Biotin-labeled secondary mAb for each cytokine was added, followed by streptavidin-alkaline phosphatase (Dako Corp., Carpinteria, Calif.) and substrate (BCIP/NBT phosphatase substrate, KPL, Gaithersburg, Md.) to develop optimal blue staining. Cytokine spots were quantified using an AID Immunospot Analyzer (AID, Cleveland, Ohio) equipped with a high resolution lens camera and analytical software designed for use with the AID system. Mean spots/well were calculated for each Ag, and net counts established after subtraction of background (no Ag). The frequency of Ag-specific spot-forming cells per million PBMC was determined from the average net response observed at two different cell concentrations. The mean net frequency+SEM was calculated for MS patients and HC, and differences compared by Student's t test for significance (p<0.05).
(§3) Preparation of ELISPOT plates. Four flat bottom 96 well plates with nitrocellulose membranes were coated overnight with 4 μg/ml mouse anti-IL-10 monoclonal antibodies (Pharmingen), and an additional 4 plates were coated with 10 μg/ml mouse anti-human INF((Mabtech). Two hours before addition of peptides, plates were washed 3× with sterile PBS, pH 7.2, and blocked for one hour at room temperature with 10% FBS in sterile PBS.
(§4) Blood processing. Twelve tubes of blood (approximately 120 ml) were collected from healthy controls and MS patients. The blood was immediately separated over a Ficoll gradient by centrifugation for 25 minutes at 2100 rpm at 25 degrees. Peripheral blood mononuclear cells (PBMC) so obtained were washed 3× with cold RPMI and resuspended to 10×10^6 cells per ml.
(§5) TCR peptide screens. Sterile stocks containing 1 mg/ml peptide were aliquotted among 4 sterile 96 well polypropylene blocks. Blocks were kept refrigerated for up to one month. Precoated and blocked ELIPSOT plates were washed with 1× with blocking solution and 100 μl of stimulation medium was added (5% fetal bovine serum/1% human AB serum/2 mM pyruvate, 2 mM glutamate, and 50 μg/ml penicillin/streptomycin). 10 μl of each peptide was added per well in triplicate wells. Negative control wells contained RPMI, positive control wells contained 2 μg/ml final concentration ConA. To each well human PBMC were added at a density of 2.5×10^5 cells per well in a total of 8 plates ([…]). Plates were incubated for 24 hours for INF-γ ELISPOTs and for 48 hours for IL-10 ELISPOTs.
(§6) Detection of cytokine producing cells. PBMC were removed from plates by washing with 3× with PBS and 3× with PBS/0.05% Tween, pH 7.6. To each well was added 100 μl of either anti-IFN-γ (1 μg/ml, Mabtech) or anti-IL-10 (2 μg/ml, Pharmingen) and incubated for 4 hours at room temperature in the dark. Plates were washed 4× with PBS/Tween, then 100 μl per well of alkaline-phosphatase-conjugated streptaviden (DAKO) (1:1000 of stock) was added and plates were incubated for 45 minutes at room temperature. Plates were washed 4× with PBS/Tween and 6× with PBS, 1 minute each. 100 μl of BCIP/NBT substrate (KPL laboratories) was added and the color reaction was allowed to develop for 3-7 minutes. Plates were rinsed 3× with distilled water and dried overnight at room temperature.
(§7) Analysis of ELISPOTS. […]

[2] = tested on: IFN-γ-secreting T cells (PBMC); assay: IFN-γ ELISPOT: frequency of TCR CDR2 peptide-specific cells in PBMC; conditions: for induction of IFN-γ-secreting T cells in HC: 5 HC; for frequency of IFN-γ-secreting cells: 5 healthy controls, mean, single peptide
Description: as §1, §2, §3, §4, §5, §6, §7

[3] = tested on: CD4+CD25− T cells; assay: Treg assay of antigen-specific CD4+CD25+ T cell lines; conditions: result in words

For ALGQGPQFIFQYYEEEERQRG [BV5S2], which “IL-10 response, MS patients versus HC” value [1] is on record?
The value was “significantly lower; also recorded: significantly reduced frequencies”.

DLGHGLRLIHYSYGVKDTNKG [BV12S2A2T] was tested. Which “induction of IFN-γ-secreting T cells in HC” value [2] did it give?
The value was “induced IFN-γ-secreting T cells in all 5 HC”.

And the “IFN-γ recognition by MS patients” value [2]?
The value was “poorly recognized”.

DLGHGLRLIHYSYGVQDTNKG [BV12S2A1T] was tested. Which “induction of IFN-γ-secreting T cells in HC” value [2] did it give?
The value was “induced IFN-γ-secreting T cells in all 5 HC”.

What about the “IFN-γ recognition by MS patients” value [2] of the same substance?
The value was “poorly recognized”.

What does the source list for KHGEAPVFLMILLKGGEQKGH [AV29S1A2T]?
frequency of IL-10-secreting T cells ([1]; mean): > 1000 cells/million PBMC; frequency of responding cells (IL-10) in MS patients ([1]; MS patients, mean): > 1500 cells/million; frequency of responding cells (IL-10) in HC [1]: about 1000 cells/million

How did the “frequency of IFN-γ-secreting cells” value [2] turn out when KLEEELKFLVYFQNEELIQKA [BV10S1P] was run?
The value was “minimal frequencies”.

What about the “frequency of IL-10-secreting T cells” value ([1]; mean) of the same substance?
The value was over 2000 cells/million PBMC.

With NQNKEFMLLISFQNEQVLQET [BV19S1P] as the substance, how does the “frequency of IFN-γ-secreting cells” value [2] read?
The value was 900 cells/million PBMC.

What does the source list for SLGQGPEFLIYFQGTGAADDS [BV6S1A1N1]?
IL-10 response, MS patients versus HC [1]: significantly lower; IL-10 response, MS patients versus HC ([1]; listed as BV6S1A1N1T): significantly reduced frequencies

What does the source list for SSGEMIFLIYQGSYDQQNATE [ADV6S1A1N1]?
induction of IFN-γ-secreting T cells in HC [2]: induced IFN-γ-secreting T cells in all 5 HC; IFN-γ recognition by MS patients [2]: poorly recognized

For Tetanus toxoid, which “Treg activity of T cell line specific for the antigen” value [3] is on record?
The value was “did not have any detectable Treg activity”.

Which results are given for VLKNEFKFLISFQNENVFDET [BV25S1A1T]?
frequency of responding cells (IL-10) in SPMS patient [1]: 450 cells/million; frequency of responding cells (IL-10) in HC [1]: 150 cells/million; IL-10 response, SPMS patient versus HC [1]: responded better than HC

For YPNQGLQLLLKYTSAATLVKG [AV1S2A1N1T], which “frequency of responding cells (IL-10) in SPMS patient” value [1] is on record?
Its value is 300 cells/million.

And the “frequency of responding cells (IL-10) in two symptomatic RRMS patients” value ([1]; MS193 and MS74)?
Its value is over 1700 cells/million.

And the “frequency of responding cells (IL-10) in HC” value [1]?
The value was under 25 cells/million.

And the “IL-10 response, SPMS patient versus HC” value [1]?
The value was “responded better than HC”.
